Test results: US7935335B2, “Strains belonging to the genus Paenibacillus and method of controlling plant disease by using these strains or culture thereof” (Kaken Pharmaceutical Co., Ltd., priority 2004, dated 2011)

Assays:
[1] = system: parsley cultured cells; assay: Activity of inducing disease resistance: elicitor responsiveness of parsley cultured cells, phytoalexin detection by fluorescence; format: cell-based; details: 2.5 μM
Protocol: The activity of inducing disease resistance in plant of compound 1 and compound 2 according to the present invention was also evaluated according to the method of Siegrist, J. et al. The results are shown in Table 9.
(§1) The activity of inducing disease resistance in plant of each of compound 1 and compound 2 was evaluated in the same manner as in Evaluation Example 1 by adopting the method practiced in Evaluation Example 1, i.e., the method in which the elicitor responsiveness of parsley cultured cells was measured by the detection of phytoalexin using fluorescence.
as §1, with “inducing” for “inducing disease”, “resistance to” for “resistance in”, “plant diseases” for “plant”, “compound 3” for “compound 1”, “compound 4” for “compound 2”

[2] = system: Pseudomonas syringae pv. lachrymans; assay: Test Example 5: control effect of a culture broth on melon bacterial blight; format: in vivo; details: foliar spray of 2 mL of 2 ppm solution
Protocol: Each of nursery trays was filled with Aisai No. 1 (mfd. by Katakura Chikkarin Co., Ltd.) and a melon (cultivar: Arles) seedling was raised in each tray. In this case, a seed treatment plot was prepared by immersing melon seeds in a Petri dish containing 10 mL (10^8 spores/mL) of the culture broth of strain BS-0105 prepared in Production Example 2, followed by bacterization at 30° C. for 2 hours. After the development of a cotyledon, the seedling was potted in a 12-cm polyethylene pot filled with Aisai No. 1. When three true leaves were completely developed, the following plots were prepared: plots on which drench or foliar spray, respectively, treatment with 1 mL ([…]) of the culture broth of strain BS-0105 prepared in Production Example 2 was carried out, and a plot on which foliar spray of 2 mL of a 2 ppm solution of Acibenzolar-S-methyl was carried out. As to the inoculation of the pathogenic bacterium (Pseudomonas syringae pv. lachrymans), 5 days after the treatment, a liquid containing the bacterial blight bacterium previously cultured on a potato semisynthetic medium (a decoction consisting of 300 g of potato and 1 L of distilled water, calcium nitrate tetrahydrate 0.5 g, disodium hydrogenphosphate dodecahydrate 2 g, peptone 5 g, sucrose 20 g, powdered agar 15 g) was inoculated on the whole of each leaf by spraying so that the reverse side of the leaf might be mainly treated. Inspection for infection was carried out by counting lesions in each of leaves from second to fourth leaves 8 days after the inoculation with the pathogenic bacterium. The protective value was calculated from the number of the lesions by the following equation to make a comparison with respect to control effect. Protective value={1−(number of lesions on treated plot/number of lesions on untreated plot)}×100

[3] = system: parsley cultured cells; assay: Activity of inducing disease resistance: elicitor responsiveness of parsley cultured cells, phytoalexin detection by fluorescence; format: cell-based; details: Evaluation Example 1; elicitor treatment Yes; 2.5 μM
[4] = system: cucumber bacterial blight bacterium (Pseudomonas syringae pv. lachrymans); assay: Test Example 3: control effect of purified spores on cucumber bacterial blight; format: in vivo; details: cucumber second true leaf; 20 ppm
[5] = system: cucumber anthracnose fungus (Colletotrichum orbiculare); assay: Test Example 1: control effect of a culture of each strain on cucumber anthracnose; format: in vivo; details: cucumber first true leaf; 20 ppm
Protocol: Each of plastic pots was filled with horticultural compost and sown with cucumber (cultivar: Suyo), followed by growing in a greenhouse for 20 days. The cotyledon of the cucumber young seedling having a developed first true leaf was coated with 0.1 mL of whole culture of each of strains BS-0048, BS-0074, BS-0105 and BS-0277 prepared by the method described in Production Example 1. After the pots were allowed to stand in a glass house at 25° C. for 3 days, the plants were inoculated with a suspension of cucumber anthracnose fungus conidia in distilled water (Colletotrichum orbiculare, 1×10^6 spores/ml) by spraying. The pots were allowed to stand in a dark moist chamber at 25° C. for 24 hours and then in a glass house at 25° C. for 7 days to cause the disease. Lesions in the first true leaf of each seedling were counted and the protective value was calculated from the number of the lesions by the following equation to make a comparison with respect to control effect. Protective value={1−(number of lesions on treated plot/number of lesions on untreated plot)}×100

[6] = system: Fusarium wilt of cucumber fungus (Fusarium oxysporum f. sp. cucumerium); assay: Evaluation Example 5: control effect on Fusarium wilt of cucumber; format: in vivo; details: 20 ppm, Spray
Protocol: Each of plastic vats was filled with horticultural compost and sown with cucumber (cultivar: Sagamihanjiro), followed by growing in a greenhouse for 12 days. The cucumber young seedling having a developed cotyledon was subjected to foliar spray treatment with the formulation obtained in the above-mentioned preparation example, in a proportion of 1 mL per seedling. After the vats were allowed to stand in a glass house at 25° C. for 3 days, the plant foot of each plant was inoculated with 2 mL of a suspension (3×10^7 spores/mL) of conidia of Fusarium wilt of cucumber fungus (Fusarium oxysporum f. sp. cucumerium) in distilled water by drench. The vats were allowed to stand in a glass house at 25° C. for 14 days to cause the disease. The disease severity was calculated from the degree of infection and then the protective value was calculated from the disease severity values by the following equation to make a comparison with respect to control effect. […]

Question: Which Relative fluorescence ([1]; Evaluation Example 6, elicitor treatment No) does the source give for `CSC(=O)c1cccc2nnsc12` [Acibenzolar-S-methyl, S-methyl 1,2,3-benzothiazole-7-carboxylate] here?
Answer: 86.9

Question: And the Relative fluorescence ([1]; Evaluation Example 6, elicitor treatment Yes)?
Answer: 664.8

Question: And the Relative fluorescence ([1]; Evaluation Example 7, elicitor No)?
Answer: 0.8

Question: And the Relative fluorescence ([1]; Evaluation Example 7, elicitor Yes)?
Answer: 377.5

Question: What about the “Protective value Average” value [2] of the same compound?
Answer: 78.5

Question: And the “Protective value Fourth leaf” value [2]?
Answer: 66.7

Question: What about the “Protective value Second leaf” value [2] of the same compound?
Answer: 100.0

Question: What about the “Protective value Third leaf” value [2] of the same compound?
Answer: 68.8

Question: What about the Relative fluorescence [3] of the same compound?
Answer: 754.3

Question: What about the “Number of lesions per leaf” value [4] of the same compound?
Answer: 0 b

Question: What about the Protective value [4] of the same compound?
Answer: 100

Question: What about the Number of lesions [5] of the same compound?
Answer: 5

Question: What about the Protective value [5] of the same compound?
Answer: 96.7

Question: What about the Disease severity [6] of the same compound?
Answer: 9.4

Question: And the Protective value [6]?
Answer: 75.6
